Source: ChEMBL document CHEMBL3868618, “Synthesis and biological evaluation of chalcone derivatives containing aminoguanidine or acylhydrazone moieties” (Bioorg Med Chem Lett, 2016)
≈ marks a conversion by molar mass, not a printed value.

Key:
[1] = system: Staphylococcus aureus; assay: Antibacterial activity against quinolone-resistant Staphylococcus aureus 3519 measured after 24 hrs by two-fold serial dilution method; assay type: functional; conditions: Staphylococcus aureus, 3519, 24 h
[2] = system: Streptococcus mutans; assay: Antibacterial activity against Streptococcus mutans 3065 measured after 24 hrs by two-fold serial dilution method; assay type: functional; conditions: Streptococcus mutans, 3065, 24 h
[3] = system: Staphylococcus aureus; assay: Antibacterial activity against Staphylococcus aureus 4220 measured after 24 hrs by two-fold serial dilution method; assay type: functional; conditions: Staphylococcus aureus, 4220, 24 h
[4] = system: Pseudomonas aeruginosa; assay: Antibacterial activity against Pseudomonas aeruginosa 2742 measured after 24 hrs by two-fold serial dilution method; assay type: functional; conditions: Pseudomonas aeruginosa, 2742, 24 h
[5] = system: Staphylococcus aureus; assay: Antibacterial activity against methicillin-resistant Staphylococcus aureus 3167 measured after 24 hrs by two-fold serial dilution method; assay type: functional; conditions: Staphylococcus aureus, 3167, 24 h
[6] = system: Mus musculus; assay: Antiinflammatory activity in mouse assessed as inhibition of xylene-induced ear edema at 100 mg/kg, ip administered 30 mins before xylene challenge measured after 30 mins relative to DMSO-control; assay type: functional
[7] = system: Candida albicans; assay: Antifungal activity against Candida albicans 7535 measured after 24 hrs by two-fold serial dilution method; assay type: functional; conditions: Candida albicans, 7535, 24 h
[8] = system: Staphylococcus aureus; assay: Antibacterial activity against Staphylococcus aureus 503 measured after 24 hrs by two-fold serial dilution method; assay type: functional; conditions: Staphylococcus aureus, 503, 24 h
[9] = system: Staphylococcus aureus; assay: Antibacterial activity against Staphylococcus aureus 209 measured after 24 hrs by two-fold serial dilution method; assay type: functional; conditions: Staphylococcus aureus, 209, 24 h
[10] = system: Staphylococcus aureus; assay: Antibacterial activity against methicillin-resistant Staphylococcus aureus 3506 measured after 24 hrs by two-fold serial dilution method; assay type: functional; conditions: Staphylococcus aureus, 3506, 24 h
[11] = system: Salmonella typhimurium; assay: Antibacterial activity against Salmonella typhimurium 1926 measured after 24 hrs by two-fold serial dilution method; assay type: functional, Salmonella enterica subsp. enterica serovar Typhimurium; conditions: Salmonella enterica, 1926, 24 h
[12] = system: Staphylococcus aureus; assay: Antibacterial activity against quinolone-resistant Staphylococcus aureus 3505 measured after 24 hrs by two-fold serial dilution method; assay type: functional; conditions: Staphylococcus aureus, 3505, 24 h
[13] = system: Escherichia coli; assay: Antibacterial activity against Escherichia coli 1924 measured after 24 hrs by two-fold serial dilution method; assay type: functional; conditions: Escherichia coli, 1924, 24 h
[14] = system: Escherichia coli; assay: Antibacterial activity against Escherichia coli 1356 measured after 24 hrs by two-fold serial dilution method; assay type: functional; conditions: Escherichia coli, 1356, 24 h
[15] = system: Candida albicans; assay: Potency index, ratio of fluconazole MIC to compound MIC against Candida albicans 7535; assay type: functional
[16] = system: Salmonella typhimurium; assay: Potency index, ratio of gatifloxacin MIC to compound MIC against Salmonella typhimurium 1926; assay type: functional, Salmonella enterica subsp. enterica serovar Typhimurium
[17] = system: Salmonella typhimurium; assay: Potency index, ratio of moxifloxin MIC to compound MIC against Salmonella typhimurium 1926; assay type: functional, Salmonella enterica subsp. enterica serovar Typhimurium

Compound | MIC [1] [µg/mL] | MIC [2] [µg/mL] | MIC [3] [µg/mL] | MIC [4] [µg/mL] | MIC [5] [µg/mL] | inhibition in vivo at 100 mg/kg [6] [%] | MIC [7] [µg/mL] | MIC [8] [µg/mL] | MIC [9] [µg/mL] | MIC [10] [µg/mL] | MIC [11] [µg/mL] | MIC [12] [µg/mL] | MIC [13] [µg/mL] | MIC [14] [µg/mL] | Ratio [15] | Ratio [16] | Ratio [17]
O=C(N/N=C/c1ccc(/C=C/C(=O)c2ccccc2Br)cc1)c1ccncc1 | > 64 | 32 (≈ 73.7 µM) | 64 (≈ 147 µM) | > 64 | > 64 | 48.7 | 64 (≈ 147 µM) | > 64 | 64 (≈ 147 µM) | > 64 | > 64 | > 64 | > 64 | > 64 |  |  | 
COc1ccc(C(=O)/C=C/c2ccc(/C=N/NC(=N)N)cc2)cc1 | 16 (≈ 49.6 µM) | 8 (≈ 24.8 µM) | 16 (≈ 49.6 µM) | 8 (≈ 24.8 µM) | 16 (≈ 49.6 µM) | 57.2 | 8 (≈ 24.8 µM) | 16 (≈ 49.6 µM) | 16 (≈ 49.6 µM) | 8 (≈ 24.8 µM) | 2 (≈ 6.2 µM) | 16 (≈ 49.6 µM) | 16 (≈ 49.6 µM) | 32 (≈ 99.3 µM) |  |  | 
O=C(/C=C/c1ccc(/C=N/NC(=O)c2ccncc2)cc1)c1ccc(Br)cc1 | 64 (≈ 147 µM) | > 64 | > 64 | > 64 | > 64 | 55.7 | > 64 | > 64 | > 64 | 64 (≈ 147 µM) | > 64 | > 64 | > 64 | > 64 |  |  | 
N=C(N)N/N=C/c1ccc(/C=C/C(=O)c2ccc(Cl)cc2)cc1 | 8 (≈ 24.5 µM) | 4 (≈ 12.2 µM) | 2 (≈ 6.12 µM) | 2 (≈ 6.12 µM) | 4 (≈ 12.2 µM) | 56.4 | 4 (≈ 12.2 µM) | 4 (≈ 12.2 µM) | 4 (≈ 12.2 µM) | 2 (≈ 6.12 µM) | 4 (≈ 12.2 µM) | 4 (≈ 12.2 µM) | 2 (≈ 6.12 µM) | 8 (≈ 24.5 µM) |  |  | 
Cc1ccc(C(=O)/C=C/c2ccc(/C=N/NC(=O)c3ccncc3)cc2)c(C)c1 | > 64 | > 64 | > 64 | > 64 | 64 (≈ 167 µM) | 58.5 | > 64 | > 64 | > 64 | 64 (≈ 167 µM) | > 64 | > 64 | > 64 | > 64 |  |  | 
N=C(N)N/N=C/c1ccc(/C=C/C(=O)c2cccc(Br)c2)cc1 | 4 (≈ 10.8 µM) | 2 (≈ 5.39 µM) | 2 (≈ 5.39 µM) | 2 (≈ 5.39 µM) | 2 (≈ 5.39 µM) | 49.7 | 2 (≈ 5.39 µM) | 2 (≈ 5.39 µM) | 2 (≈ 5.39 µM) | 2 (≈ 5.39 µM) | 1 (≈ 2.69 µM) | 2 (≈ 5.39 µM) | 2 (≈ 5.39 µM) | 8 (≈ 21.5 µM) | 2 | 1 - 2 | 1
O=C(/C=C/c1ccc(/C=N/NC(=O)c2ccncc2)cc1)c1cccc(Br)c1 | 64 (≈ 147 µM) | > 64 | 64 (≈ 147 µM) | > 64 | 32 (≈ 73.7 µM) | 14 | > 64 | 64 (≈ 147 µM) | 64 (≈ 147 µM) | 32 (≈ 73.7 µM) | > 64 | 64 (≈ 147 µM) | > 64 | > 64 |  |  | 
Cc1ccc(C(=O)/C=C/c2ccc(/C=N/NC(=O)c3ccccc3)cc2)c(C)c1 | > 64 | > 64 | > 64 | > 64 | > 64 | 0.18 | > 64 | > 64 | > 64 | > 64 | > 64 | > 64 | > 64 | > 64 |  |  | 
O=C(N/N=C/c1ccc(/C=C/C(=O)c2ccc(Cl)cc2Cl)cc1)c1ccncc1 | 16 (≈ 37.7 µM) | 32 (≈ 75.4 µM) | 8 (≈ 18.9 µM) | > 64 | 16 (≈ 37.7 µM) | 83.8 | 4 (≈ 9.43 µM) | 16 (≈ 37.7 µM) | 16 (≈ 37.7 µM) | 16 (≈ 37.7 µM) | > 64 | 16 (≈ 37.7 µM) | 32 (≈ 75.4 µM) | 32 (≈ 75.4 µM) |  |  | 
O=C(/C=C/c1ccc(/C=N/NC(=O)c2ccncc2)cc1)c1ccc(F)cc1 | 32 (≈ 85.7 µM) | 64 (≈ 171 µM) | 32 (≈ 85.7 µM) | > 64 | 32 (≈ 85.7 µM) | 51.1 | > 64 | 64 (≈ 171 µM) | 32 (≈ 85.7 µM) | 32 (≈ 85.7 µM) | > 64 | 32 (≈ 85.7 µM) | 64 (≈ 171 µM) | 64 (≈ 171 µM) |  |  | 
N=C(N)N/N=C/c1ccc(/C=C/C(=O)c2cccc(Cl)c2)cc1 | 8 (≈ 24.5 µM) | 4 (≈ 12.2 µM) | 4 (≈ 12.2 µM) | 4 (≈ 12.2 µM) | 4 (≈ 12.2 µM) | 80.7 | 4 (≈ 12.2 µM) | 4 (≈ 12.2 µM) | 4 (≈ 12.2 µM) | 2 (≈ 6.12 µM) | 2 (≈ 6.12 µM) | 4 (≈ 12.2 µM) | 4 (≈ 12.2 µM) | 8 (≈ 24.5 µM) |  |  | 
O=C(N/N=C/c1ccc(/C=C/C(=O)c2ccccc2Cl)cc1)c1cccc(Cl)c1 | 32 (≈ 75.6 µM) | > 64 | 32 (≈ 75.6 µM) | > 64 | 32 (≈ 75.6 µM) | 43 | > 64 | 32 (≈ 75.6 µM) | 32 (≈ 75.6 µM) | 32 (≈ 75.6 µM) | > 64 | 32 (≈ 75.6 µM) | > 64 | > 64 |  |  | 
O=C(N/N=C/c1ccc(/C=C/C(=O)c2ccccc2F)cc1)c1ccncc1 | 64 (≈ 171 µM) | 16 (≈ 42.9 µM) | 64 (≈ 171 µM) | > 64 | 64 (≈ 171 µM) | 51.2 | > 64 | 64 (≈ 171 µM) | 64 (≈ 171 µM) | 64 (≈ 171 µM) | > 64 | 64 (≈ 171 µM) | 64 (≈ 171 µM) | 64 (≈ 171 µM) |  |  | 
